One assay concerns the target T1, BRD4 BD1 (Homo sapiens, UniProt O60885).
T1 construct: made in house
In words: AlphaScreen binding assay, BRD4 Bromodomain 1. The method in brief: (§1)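 Compound dilution series were mixed with His-tagged BRD4 bromodomain and biotinylated tetra-acetylated H4 (1-21) peptide at pH 7.3 (BD1 and peptide at 50 nM, BD2 and peptide at 100 nM). Donor and acceptor beads were then added, and plates were equilibrated at least 1 h before reading. IC50 values were fitted with a four-parameter logistic model.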
Background: In Alpha technology, singlet oxygen from a donor bead excites a nearby acceptor bead.

The test system of another assay is MV4-11 cells. Briefly: Oncology cell growth assay (3-day proliferation, CellTiter-Glo). Type of assay: cell-based. The settings on record: Homo sapiens, MV4-11, 72 h, AML cell line MV4-11, 72 hours, compounds grouped by IC50 range, read-out: MV4-11 IC50 (inhibition of proliferation, gIC50). Here is the method:
The impact of Example compounds on cancer cell proliferation was determined using the acute myelocytic leukemia (AML) cell line MV4-11 (ATCC) in a 3-day proliferation assay. MV4-11 cells were maintained in RPMI 1640 media supplemented with 10% FBS at 37° C. and an atmosphere of 5% CO2. For compound testing, compound dilutions series were prepared in DMSO via a 3-fold serial dilution from 2 mM to 0.001 mM in 384-well white flat bottom plates. The final compound concentrations in the wells were 10, 3.3, 1.1, 0.37, 0.12, 0.041, 0.013 and 0.0045 μM. MV4-11 cells were plated at a density of 3000 cells/well in final volume of 50 μl culture media and incubated for 72 hours. […] Luminescent signal from the CellTiter-Glo assay was read on an EnVision multilabel plate reader (PerkinElmer). Values for the concentration that inhibited cell growth by 50% (gIC50) between the DMSO control and background control (no cells) were determined using IDBS Activity Base software with a four parameter logistic curve fit by the equation y=A+((B−A)/(1+((C/x)^D))), wherein A denotes the bottom plateau of the curve, B denotes the top plateau of the curve, C denotes the x value at the middle of the curve, D denotes the slope factor, x denotes the original known x values, and y denotes the original known y values. Data was fitted using the Levenburg Marquardt algorithm.

Another assay has as its target T2, BRD4 BD2 (Homo sapiens, UniProt O60885).
T2 construct: made in house
In words: AlphaScreen binding assay, BRD4 Bromodomain 2. The essentials:
as §1

pIC50: −log10 of the molar value.

With `CC(=O)N1c2ccc(-c3cnn(C4CN[C@H]4C)c3)cc2N(C(=O)OC2CC(F)(F)C2)C[C@@H]1C` (mixture of isomers) [Example I-168, 3,3-difluorocyclobutyl (3S)-4-acetyl-3-methyl-7-{1-[(2S)-2-methylazetidin-3-yl]-1H-pyrazol-4-yl}-1,2,3,4-tetrahydroquinoxaline-1-carboxylate], the pIC50 at BRD4 BD1 is 6.00 to 7.00; with MV4-11 cells, less than 6.30.

For `CC(=O)N1c2ccc(-c3cnn(C4CCNC(=O)C4)c3)cc2N(C(=O)OC2CCC2)C[C@@H]1C` (single isomer, unassigned) [Example I-176], the pIC50 at BRD4 BD1 is 6.00 to 7.00; with MV4-11 cells it was 6.30 to 7.00.

Turning to `CC(=O)N1c2ccc(-c3cnn(C4CS(=O)(=O)C4)c3)cc2N(C(=O)OC2CC(F)(F)C2)C[C@@H]1C` [Example I-1, 3,3-difluorocyclobutyl (3S)-4-acetyl-7-[1-(1,1-dioxo-1λ^6-thietan-3-yl)-1H-pyrazol-4-yl]-3-methyl-1,2,3,4-tetrahydroquinoxaline-1-carboxylate], the pIC50 at BRD4 BD1 was 6.00 to 7.00; with MV4-11 cells it was 6.30 to 7.00.

In the case of `CC(=O)N1c2ccc(-c3cnn(C4CCS(=O)(=O)CC4)c3)cc2N(C(=O)OC2CCC2)C[C@@H]1C` [Example I-154, cyclobutyl (3S)-4-acetyl-7-[1-(1,1-dioxo-1λ^6-thian-4-yl)-1H-pyrazol-4-yl]-3-methyl-1,2,3,4-tetrahydroquinoxaline-1-carboxylate], the pIC50 on BRD4 BD1 and with MV4-11 cells was greater than 7.00 each time.

For the compound `CC(=O)N1c2ccc(-c3cnn(C4CCS(=O)(=O)CC4)c3)cc2N(C(=O)OC(C)C)C[C@@H]1C` [Example I-156, propan-2-yl (3S)-4-acetyl-7-[1-(1,1-dioxo-1λ^6-thian-4-yl)-1H-pyrazol-4-yl]-3-methyl-1,2,3,4-tetrahydroquinoxaline-1-carboxylate], the values for the pIC50 on BRD4 BD1 and in the assay on MV4-11 cells were 6.00 to 7.00 and less than 6.30, respectively.

As for `CC(=O)N1c2ccc(-c3cnn(C4CN[C@H]4C)c3)cc2N(C(=O)OC(C)C)C[C@@H]1C` (stereo partly drawn) [Example I-159, propan-2-yl (3S)-4-acetyl-3-methyl-7-{1-[(2S)-2-methylazetidin-3-yl]-1H-pyrazol-4-yl}-1,2,3,4-tetrahydroquinoxaline-1-carboxylate], the pIC50 on BRD4 BD1 was 6.00 to 7.00; in the assay with MV4-11 cells, greater than 7.00.

Turning to `CC(=O)N1c2ccc(-c3cnn(C4CN[C@H]4C)c3)cc2N(C(=O)C2CC2)C[C@@H]1C` (stereo partly drawn) [Example I-160, 1-[(2S)-4-cyclopropanecarbonyl-2-methyl-6-{1-[(2S)-2-methylazetidin-3-yl]-1H-pyrazol-4-yl}-1,2,3,4-tetrahydroquinoxalin-1-yl]ethan-1-one], the pIC50 was 6.00 to 7.00 at BRD4 BD1 and greater than 7.00 in the assay on MV4-11 cells.

`CC(=O)N1c2ccc(-c3cnn(C4CCNC(=O)C4)c3)cc2N(C(=O)OC2CCOCC2)C[C@@H]1C` (stereo partly drawn) [Example I-163, oxan-4-yl (3S)-4-acetyl-3-methyl-7-[1-(2-oxopiperidin-4-yl)-1H-pyrazol-4-yl]-1,2,3,4-tetrahydroquinoxaline-1-carboxylate]: the pIC50 at BRD4 BD1 is 6.00 to 7.00; with MV4-11 cells, 6.30 to 7.00.

On to `CC(=O)N1c2ccc(-c3cnn(C4CCNC(=O)C4)c3)cc2N(C(=O)OC2CC(F)(F)C2)C[C@@H]1C` (stereo partly drawn) [Example I-164, 3,3-difluorocyclobutyl (3S)-4-acetyl-3-methyl-7-[1-(2-oxopiperidin-4-yl)-1H-pyrazol-4-yl]-1,2,3,4-tetrahydroquinoxaline-1-carboxylate], for which the results for the pIC50 on BRD4 BD1 and in the assay with MV4-11 cells were 6.00 to 7.00 and less than 6.30, respectively.

For the compound `CC(=O)N1c2ccc(-c3cnn(C4CCNC(=O)C4)c3)cc2N(C(=O)OC2CCC(F)(F)CC2)C[C@@H]1C` (stereo partly drawn) [Example I-165, 4,4-difluorocyclohexyl (3S)-4-acetyl-3-methyl-7-[1-(2-oxopiperidin-4-yl)-1H-pyrazol-4-yl]-1,2,3,4-tetrahydroquinoxaline-1-carboxylate], the values for the pIC50 on BRD4 BD1 and in the assay with MV4-11 cells were 6.00 to 7.00 and 6.30 to 7.00, respectively.

Regarding `CC(=O)N1c2ccc(-c3cnn(C4CCNC(=O)C4)c3)cc2N(C(=O)OC(C)C)C[C@@H]1C` (stereo partly drawn) [Example I-166, propan-2-yl (3S)-4-acetyl-3-methyl-7-[1-(2-oxopiperidin-4-yl)-1H-pyrazol-4-yl]-1,2,3,4-tetrahydroquinoxaline-1-carboxylate], the values for the pIC50 on BRD4 BD1 and in the assay on MV4-11 cells were 6.00 to 7.00 and 6.30 to 7.00, respectively.

Regarding `COC(=O)N1c2ccc(-c3ccc(N4CCCS4(=O)=O)cc3)cc2N(C(=O)Oc2cccnc2)C[C@@H]1C` [Example I-1287], the pIC50 on BRD4 BD1 is 5.00 to 6.00; at BRD4 BD2 it was less than 6.30.

Take `CC(=O)N1c2ccc(-c3cnn(CCC#N)c3)cc2N(C(=O)Oc2cccnc2)C[C@@H]1C` [Example I-1288]: the pIC50 is 5.00 to 6.00 at BRD4 BD1 and 6.30 to 7.30 on BRD4 BD2.

Take `COC(=O)N1c2ccc(-c3cnn(CCC#N)c3)cc2N(C(=O)Oc2cccnc2)C[C@@H]1C` [Example I-1289]: the pIC50 at BRD4 BD1 was 5.00 to 6.00; at BRD4 BD2 it was 6.30 to 7.30.

Take `CC(=O)N1c2ccc(-c3ccc4c(c3)CCN4S(C)(=O)=O)cc2N(C(=O)Oc2cccnc2)C[C@@H]1C` [Example I-1290]: the pIC50 was 5.00 to 6.00 on BRD4 BD1 and 6.30 to 7.30 on BRD4 BD2.

For `COC(=O)N1c2ccc(-c3ccc4c(c3)CCN4S(C)(=O)=O)cc2N(C(=O)Oc2cccnc2)C[C@@H]1C` [Example I-1291], the values for the pIC50 on BRD4 BD1 and on BRD4 BD2 were 5.00 to 6.00 and less than 6.30, respectively.

Consider `COC(=O)N1c2ccc(-c3ccc(N(C)S(C)(=O)=O)cc3)cc2N(C(=O)Oc2cccnc2)C[C@@H]1C` [Example I-1293], for which the values for the pIC50 on BRD4 BD1 and on BRD4 BD2 were 5.00 to 6.00 and less than 6.30, respectively.

With `COC(=O)N1c2ccc(-c3cnn(C4CNC4)c3)cc2N(C(=O)Oc2cccnc2)C[C@@H]1C` [Example I-1295], the results for the pIC50 at BRD4 BD1 and at BRD4 BD2 were 5.00 to 6.00 and 6.30 to 7.30, respectively.

As for `COC(=O)N1c2ccc(-c3cnn(C4CCNCC4)c3)cc2N(C(=O)Oc2cccnc2)C[C@@H]1C` [Example I-1296], the values for the pIC50 on BRD4 BD1 and at BRD4 BD2 were 5.00 to 6.00 and 6.30 to 7.30, respectively.

For the compound `COC(=O)N1c2ccc(-c3cnn(C(C)(C)CO)c3)cc2N(C(=O)Oc2ccccn2)C[C@@H]1C` [Example I-1313], the pIC50 on BRD4 BD1 is 5.00 to 6.00; on BRD4 BD2, 6.30 to 7.30.

As to `CC(=O)N1c2ccc(-c3ccc(S(C)(=O)=O)cc3)cc2N(C(=O)Oc2ccccn2)C[C@@H]1C` [Example I-1314], the pIC50 was 5.00 to 6.00 on BRD4 BD1 and 6.30 to 7.30 at BRD4 BD2.

For the compound `COC(=O)N1c2ccc(-c3ccc(S(C)(=O)=O)cc3)cc2N(C(=O)Oc2ccccn2)C[C@@H]1C` [Example I-1315], the pIC50 was 5.00 to 6.00 on BRD4 BD1 and 6.30 to 7.30 at BRD4 BD2.

`COC(=O)N1c2ccc(-c3ccc(NS(C)(=O)=O)cc3)cc2N(C(=O)Oc2ccccn2)C[C@@H]1C` [Example I-1317]: the pIC50 on BRD4 BD1 was 5.00 to 6.00; on BRD4 BD2 it was 6.30 to 7.30.

On to `CC(=O)N1c2ccc(-c3cnn(CCS(C)(=O)=O)c3)cc2N(C(=O)Oc2ccccn2)C[C@@H]1C` [Example I-1318], for which the pIC50 at BRD4 BD1 is 5.00 to 6.00; on BRD4 BD2, 6.30 to 7.30.

`COC(=O)N1c2ccc(-c3cnn(CCS(C)(=O)=O)c3)cc2N(C(=O)Oc2ccccn2)C[C@@H]1C` [Example I-1319]: the pIC50 on BRD4 BD1 is 5.00 to 6.00; on BRD4 BD2 it was 6.30 to 7.30.

Turning to `CC(=O)N1c2ccc(-c3cnn(CC(C)(C)O)c3)cc2N(C(=O)Oc2ccccn2)C[C@@H]1C` [Example I-1320], the pIC50 on BRD4 BD1 is 5.00 to 6.00; on BRD4 BD2 it was 6.30 to 7.30.

For `COC(=O)N1c2ccc(-c3cnn(CC(C)(C)O)c3)cc2N(C(=O)Oc2ccccn2)C[C@@H]1C` [Example I-1321], the pIC50 is 5.00 to 6.00 at BRD4 BD1 and 6.30 to 7.30 on BRD4 BD2.

`COC(=O)N1c2ccc(-c3ccc(N4CCCS4(=O)=O)cc3)cc2N(C(=O)Oc2ccccn2)C[C@@H]1C` [Example I-1325]: the pIC50 was 5.00 to 6.00 on BRD4 BD1 and 6.30 to 7.30 at BRD4 BD2.

Consider `COC(=O)N1c2ccc(-c3cnn(CCC#N)c3)cc2N(C(=O)Oc2ccccn2)C[C@@H]1C` [Example I-1327], for which the figures for the pIC50 on BRD4 BD1 and on BRD4 BD2 were 5.00 to 6.00 and 6.30 to 7.30, respectively.

`COC(=O)N1c2ccc(-c3ccc4c(c3)CCN4S(C)(=O)=O)cc2N(C(=O)Oc2ccccn2)C[C@@H]1C` [Example I-1329]: the pIC50 is 5.00 to 6.00 on BRD4 BD1 and 6.30 to 7.30 at BRD4 BD2.

As to `COC(=O)N1c2ccc(-c3ccc(N(C)S(C)(=O)=O)cc3)cc2N(C(=O)Oc2ccccn2)C[C@@H]1C` [Example I-1331], the pIC50 on BRD4 BD1 is 5.00 to 6.00; on BRD4 BD2, 6.30 to 7.30.

For `COC(=O)N1c2ccc(-c3cnn(C4CCNCC4)c3)cc2N(C(=O)Oc2ccccn2)C[C@@H]1C` [Example I-1333], the pIC50 is 5.00 to 6.00 on BRD4 BD1 and 6.30 to 7.30 on BRD4 BD2.

Regarding `COC(=O)N1c2ccc(-c3cnn(CCO)c3)cc2N(C(=O)Oc2ccccn2)C[C@@H]1C` [Example I-1335], the pIC50 is 5.00 to 6.00 at BRD4 BD1 and 6.30 to 7.30 at BRD4 BD2.

For the origin of these results see US10703764B2, “Benzopiperazine compositions as BET bromodomain inhibitors” (FORMA Therapeutics, Inc., priority 2013, dated 2020).
